Where a SMILES comes first, the peptide text is derived from it. The star is where a group is joined. Orn(α-tetramethylguanidino) = CN(C)C(=N[C@@H](CCCN)C(=O)*)N(C)C
How the values were obtained:
[1] = molecular target: T1, 50S subunit (Escherichia coli, UniProt P0A7M6+P0ADZ0+P60723+P61175); assay: Fluorescence polarization binding, 50S subunit; design: species or system E. coli
T1 construct: Ribosomes were isolated from the E. coli strain MRE600; made in house; native subunits isolated in house
Experimental: Several hundred grams of log-phase cells were commercially produced and purchased. Cells were washed in buffer A (20 mmol/L HEPES (pH 7.6), 6 mmol/L MgAc2, 30 mmol/L AcOK, 4 mmol/L ß-mercaptoethanol) and lysed in an M-110L microfluidizer (Microfluidics) at 17,000 psi and 4 °C. Cell debris was removed by low-speed centrifugation (15,000× g, 10 min, 4 °C) to obtain S30 lysate. Crude ribosomes, mostly containing 70S ribosomes, were pelleted by ultracentrifugation (40,000× g, 17 h, 4 °C) and resuspended in buffer A. The 70S ribosomes were separated from 30S and 50S subunits by zonal ultracentrifugation (Beckman Ti-15; 6–40% sucrose gradient in buffer A, 44,000× g, 16 h, 4 °C). The 70S-containing fractions were collected, and the ribosomes were sedimented by ultracentrifugation (40,000× g, 17 h, 4 °C). Since these 70S ribosomes still contained tRNAs and mRNA, they were resuspended in buffer B (20 mmol/L HEPES (pH 7.6), 1 mmol/L MgAc2, 0.2 mol/L NH4Ac, 4 mmol/L ß-mercaptoethanol), which allows for dissociation into 30S and 50S subunits, and subjected to a second zonal centrifugation (Beckman Ti-15, 44,000× g, 16 h, 4 °C), but this time in a 6–40% sucrose gradient prepared in buffer B. Fractions containing 30S and 50S subunits were collected, sedimented by ultracentrifugation (40,000× g, 17 h, 4 °C), resuspended in buffer A, aliquoted, shock-frozen in liquid nitrogen, and stored at −80 °C.
Dissociation constants (Kd) were determined using purified 70S ribosome, 50S or 30S subunit and cf-labeled peptides in ribosome preparation buffer. Briefly, black 384-well plates (flat bottom, 781209, Greiner Bio-One GmbH) were blocked with casein (0.5%, w/v) in PBS containing 0.05% (v/v) Tween 20 at 4 °C overnight and washed three times with phosphate buffer. A 2-fold dilution series (22 steps) of pure 70S ribosome, 50S or 30S subunit (10 μL per well) in ribosome preparation buffer was prepared in a black 384-well plate. The cf-labeled peptide was dissolved in ribosome preparation buffer (10 μL, 40 nmol/L), added to each well, centrifuged (500 x g, 2 min), and incubated at 28 ± 1 °C for 90 min. Fluorescence polarization was measured on a […]^TM microplate reader (Beckman Coulter, Krefeld, Germany) in the top reading position (λexc = 485 nm, λem = 535 nm). Data were fitted to a nonlinear dose-response logistic transition equation [y = y0 + a/(1 + (x/x0)b)] using the Levenberg-Marquardt algorithm, with Kd represented by the x0 coefficients (GraphPad Prism for Windows v. 10.1.2, San Diego, CA, USA).

[2] = tested on: 30S subunit; assay: Fluorescence polarization binding, 30S subunit; design: species or system E. coli; conditions: ratio 30S / 50S; cf-labeled
Experimental: (§1) Several hundred grams of log-phase cells were commercially produced and purchased. Cells were washed in buffer A (20 mmol/L HEPES (pH 7.6), 6 mmol/L MgAc2, 30 mmol/L AcOK, 4 mmol/L ß-mercaptoethanol) and lysed in an M-110L microfluidizer (Microfluidics) at 17,000 psi and 4 °C. Cell debris was removed by low-speed centrifugation (15,000× g, 10 min, 4 °C) to obtain S30 lysate. Crude ribosomes, mostly containing 70S ribosomes, were pelleted by ultracentrifugation (40,000× g, 17 h, 4 °C) and resuspended in buffer A. The 70S ribosomes were separated from 30S and 50S subunits by zonal ultracentrifugation (Beckman Ti-15; 6–40% sucrose gradient in buffer A, 44,000× g, 16 h, 4 °C). The 70S-containing fractions were collected, and the ribosomes were sedimented by ultracentrifugation (40,000× g, 17 h, 4 °C). […]
Dissociation constants (Kd) were determined using purified 70S ribosome, 50S or 30S subunit and cf-labeled peptides in ribosome preparation buffer. […] Fluorescence polarization was measured on a […]^TM microplate reader (Beckman Coulter, Krefeld, Germany) in the top reading position (λexc = 485 nm, λem = 535 nm). […]

[3] = molecular target: T1, 50S subunit; assay: Cryo-EM of 50S•Api137 and 50S•Api88 complexes; assay type: binding, E. coli; conditions: 50S 0.3 µM, peptide 30 µM, Tico buffer pH 7.6, room temperature, 20 min
Experimental: as §1
Purified 50S subunits (0.3 µM) were incubated with Api137 or Api88 (30 µM) in Tico buffer (20 mM HEPES/KOH, pH 7.6, 30 mM AcOK, 6 mM Mg(AcO)2, 4 mM 2-mercaptoethanol) at room temperature for 20 min. The complexes were applied to glow-discharged (Pelco Easy Glow) holey carbon grids (400 Mesh Cu R2/2, Quantifoil MicroTools GmbH) and plunge-frozen in liquid ethane using a Vitrobot Mark IV (Thermo Fisher Scientific) device. […]

[4] = tested on: Gram-negative bacteria; conditions: cited from earlier work
Description: Here we have focused on two structurally modified versions of apidaecin 1b ([…]), which was originally isolated from the western honeybee (Apis mellifera).

[5] = tested on: murine infection models; conditions: various models, different routes of administration; cited from earlier work
Description: Here we have focused on two structurally modified versions of apidaecin 1b ([…]), which was originally isolated from the western honeybee (Apis mellifera). […] Api137 and Api88 differ only in their C-termini, i.e., a free acid versus an amide, which are negatively charged or neutral, respectively, ...

[6] = tested on: uL22 and uL4; conditions: cited from earlier work

CC[C@H](C)[C@H](NC(=O)[C@H](Cc1ccc(O)cc1)NC(=O)[C@@H](NC(=O)[C@@H]1CCCN1C(=O)[C@H](CCCNC(=N)N)NC(=O)[C@H](CC(N)=O)NC(=O)[C@H](CC(N)=O)NC(=O)[C@H](CCCN)N=C(N(C)C)N(C)C)C(C)C)C(=O)N1CCC[C@H]1C(=O)N[C@@H](CCCNC(=N)N)C(=O)N1CCC[C@H]1C(=O)N[C@@H](CCCNC(=N)N)C(=O)N1CCC[C@H]1C(=O)N1CCC[C@H]1C(=O)N[C@@H](Cc1c[nH]cn1)C(=O)N1CCC[C@H]1C(=O)N[C@@H](CCCNC(=N)N)C(=O)N[C@@H](CC(C)C)C(=O)O [Api137] ({Orn(α-tetramethylguanidino)}-NNRPVYIPRPRPPHPRL-OH)
Kd ([1]; apparent Kd, cf-labeled PrAMP (10 μL, 40 nmol/L), ribosome preparation buffer pH 7.6, 28 °C, 90 min, mean of triplicates): 2180 ± 110 nM
Kd for 50S subunit lower than for 70S ribosome ([1]; ratio 70S / 50S, cf-labeled): two-
binding to 30S subunit weaker compared to 50S subunit [2]: ~10 fold
binding sites identified on 50S [3]: another apidaecin molecule in an unexpected location near the exit of the PET
antimicrobial activity (Api137 and Api88 compared) ([4]; Api137 and Api88): comparable level of antimicrobial activity
antibacterial activity ([4]; against Gram-negative bacteria): enhanced antibacterial activity
efficacy in murine infection models [5]: demonstrated efficacy in various murine infection models
ribosomal proteins interacting (genetic screen) [6]: uL22 and uL4
